Test results reported in patent US6962923B2, “Pyrazole compositions” (Pfizer Inc., priority 1999, dated 2005).

Columns and labels:
[1] = in man; cited from earlier work
neointimal formation = settings: cited from earlier work
[2] = hypertensive patients; cited from earlier work

## COc1ccccc1Oc1c(OC)nn(C)c1NS(=O)(=O)c1ccc(C(C)(C)C)cc1 [Example 107, 4-(tert-Butyl)-N-[3-methoxy-4-(2-methoxyphenoxy)-1-methyl-1H-pyrazol-5-yl]benzenesulfonamide]
other
  melting point: 187.6 °C

## CCCC[C@@H](NC(=O)[C@@H](Cc1cn(C(=O)OC)c2ccccc12)NC(=O)[C@H](CC(C)(C)C)NC(=O)N1[C@H](C)CCC[C@@H]1C)C(=O)O [BQ-788]
[1]
  peripheral resistance: increase peripheral resistance

## CCCOc1ccc2c(c1)[C@@H](c1ccc(OC)cc1OCC(=O)O)[C@H](C(=O)O)[C@H]2c1ccc2c(c1)OCO2 [SB-209670]
Neointimal formation
  reduction in neointimal formation relative to control animals: 50%

## COc1ccccc1Oc1c(NS(=O)(=O)c2ccc(C(C)(C)C)cc2)nc(-c2ncccn2)nc1OCCO [Bosentan]
[2]
  blood pressure: decreased blood pressure
